The text below walks through data of ChEMBL document CHEMBL4814005, “Pragmatic recruitment of memantine as the capping group for the design of HDAC inhibitors: A preliminary attempt to unravel the enigma of glioblastoma” (Eur J Med Chem, 2021).

Activity calls are given as the source filed them. The calls are words filed in the database; no cut-off is given here.

Series [1] concerns the target T1, Protein deacetylase HDAC6 (Homo sapiens, UniProt Q9UBN7).
T1 sequence (Q9UBN7 whole entry): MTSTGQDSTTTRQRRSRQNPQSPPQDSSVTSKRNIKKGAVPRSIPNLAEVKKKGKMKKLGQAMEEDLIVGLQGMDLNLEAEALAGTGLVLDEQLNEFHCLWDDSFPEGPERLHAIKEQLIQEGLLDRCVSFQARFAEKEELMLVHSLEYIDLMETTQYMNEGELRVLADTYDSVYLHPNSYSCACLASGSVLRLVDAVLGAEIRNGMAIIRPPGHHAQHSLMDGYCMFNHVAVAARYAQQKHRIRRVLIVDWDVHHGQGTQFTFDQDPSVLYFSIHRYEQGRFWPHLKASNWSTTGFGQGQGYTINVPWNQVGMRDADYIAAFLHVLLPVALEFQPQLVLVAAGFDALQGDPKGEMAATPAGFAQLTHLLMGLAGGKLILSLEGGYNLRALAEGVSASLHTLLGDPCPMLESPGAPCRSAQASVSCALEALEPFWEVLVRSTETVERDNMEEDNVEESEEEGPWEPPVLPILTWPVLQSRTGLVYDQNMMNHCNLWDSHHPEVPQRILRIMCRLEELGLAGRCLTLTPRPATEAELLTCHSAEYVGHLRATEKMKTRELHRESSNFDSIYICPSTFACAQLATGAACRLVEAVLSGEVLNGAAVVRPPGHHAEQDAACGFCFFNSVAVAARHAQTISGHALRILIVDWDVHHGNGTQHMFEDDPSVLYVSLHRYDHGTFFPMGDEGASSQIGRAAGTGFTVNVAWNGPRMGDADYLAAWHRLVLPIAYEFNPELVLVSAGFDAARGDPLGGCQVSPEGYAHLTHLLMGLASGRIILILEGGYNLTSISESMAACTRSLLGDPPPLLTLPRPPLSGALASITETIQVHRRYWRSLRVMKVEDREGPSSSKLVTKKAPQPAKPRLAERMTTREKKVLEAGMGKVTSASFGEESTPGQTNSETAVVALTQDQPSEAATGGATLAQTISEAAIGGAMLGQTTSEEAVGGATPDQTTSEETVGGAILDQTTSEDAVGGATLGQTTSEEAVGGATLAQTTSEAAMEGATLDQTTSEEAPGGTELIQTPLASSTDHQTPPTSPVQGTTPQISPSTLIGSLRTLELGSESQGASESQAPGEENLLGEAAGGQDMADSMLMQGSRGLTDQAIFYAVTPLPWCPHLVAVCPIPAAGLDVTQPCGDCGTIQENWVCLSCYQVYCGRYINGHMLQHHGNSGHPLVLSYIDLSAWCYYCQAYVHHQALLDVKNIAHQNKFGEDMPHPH
The series is described as follows: Inhibition of human recombinant HDAC6 expressed in baculovirus infected insect cells using [RHKK(Ac)] fluorogenic substrate.

The test system of series [2] is U-87 MG. Kind of series: Antiproliferation activity against human U-87 MG cells assessed as growth inhibition measured after 1 hr by MTT assay. In kind it is functional, cell-based, U-87MG ATCC.
Series [3] addresses Histone deacetylase 1 (Homo sapiens, UniProt Q13547). Kind of series: Inhibition of human recombinant HDAC1 expressed in baculovirus infected insect cells using [RHKK(Ac)] fluorogenic substrate.
Series [4] concerns the target T2, Histone deacetylase 8 (Homo sapiens, UniProt Q9BY41).
T2 sequence (Q9BY41 whole entry): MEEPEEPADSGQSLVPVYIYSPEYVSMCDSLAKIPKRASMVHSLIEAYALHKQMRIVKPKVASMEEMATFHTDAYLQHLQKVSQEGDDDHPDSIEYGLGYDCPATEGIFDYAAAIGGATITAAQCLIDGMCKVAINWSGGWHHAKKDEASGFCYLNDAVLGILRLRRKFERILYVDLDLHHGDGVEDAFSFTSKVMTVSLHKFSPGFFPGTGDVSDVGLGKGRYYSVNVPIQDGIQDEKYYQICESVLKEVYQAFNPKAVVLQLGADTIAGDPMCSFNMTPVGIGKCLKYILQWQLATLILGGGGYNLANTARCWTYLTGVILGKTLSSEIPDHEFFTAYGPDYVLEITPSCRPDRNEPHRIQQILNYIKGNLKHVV
The series is described as follows: Inhibition of human recombinant HDAC8 using [RHKK(Ac)] fluorogenic substrate.

The target of series [5] is Histone deacetylase 3 (Homo sapiens, UniProt O15379). Kind of series: Inhibition of human recombinant HDAC3 using [RHKK(Ac)] fluorogenic substrate.
For series [6], the system named is U-87 MG. Kind of series: Antiproliferation activity against human U-87 MG cells assessed as growth inhibition at 10 uM after 3 days by MTT assay. In kind it is functional, U-87MG ATCC. The settings on record: 72 h, time 3 day.
The subject of series [7] is A 172. Kind of series: Induction of apoptosis in human A 172 cells assessed as upregulation of cleaved PARP at 3 uM after 24 hrs by western blot analysis. In kind it is functional, cell-based.
The test system of series [8] is A 172. The series is described as follows: Induction of cell cycle arrest in human A 172 cells assessed as accumulation at G2/M phase by propidium iodide staining based flow cytometric analysis. The settings on record: dose microM <=10. The class given is functional.
Series [9] relates to A 172. Kind of series: Induction of cell cycle arrest in human A 172 cells assessed as accumulation at G0/G1 phase by propidium iodide staining based flow cytometric analysis. The class given is functional. The settings on record: dose microM <=10.
For series [10], the system named is A 172. Kind of series: Induction of apoptosis in human A 172 cells assessed as upregulation of activated caspase 3 protein at 3 uM after 24 hrs by western blot analysis. In kind it is functional, cell-based.
Series [11] deals with A 172. Kind of series: Induction of cell cycle arrest in human A 172 cells assessed as sub-G1 population upto 10 uM after 2 days by flow cytometry/PI staining assay. The class given is functional, cell-based. The following applies: dose microM <=10, time 2.0 day.
Series [12] in a line: Permeability of compound by PAMPA-BBB assay.
Series [13] relates to A 172. Kind of series: Induction of cell cycle arrest in human A 172 cells assessed as accumulation at S phase upto 10 uM by propidium iodide staining based flow cytometric analysis. In kind it is functional. The settings on record: dose microM <=10.
Series [14] relates to U-87 MG. Kind of series: Antiproliferation activity against human U-87 MG cells assessed as decrease in cell growth at 30 uM after 3 days by MTT assay. The class given is functional, U-87MG ATCC. Set-up: scale not given: the % may be the effect or the level left. The following applies: time 3 day.
The subject of series [15] is U-87 MG. The series is described as follows: Antiproliferation activity against human U-87 MG cells assessed as decrease in cell growth at 30 uM incubated for 2 days by MTT assay. In kind it is functional, cell-based. The settings on record: U-87MG ATCC, time 2.0 day.
In series [16] the test system is U-87 MG. The series is described as follows: Antiproliferation activity against TMZ resistant human U-87 MG R-50 cells assessed as growth inhibition at 3 uM by MTT assay. The settings on record: U-87MG ATCC. The class given is functional, cell-based.
Series [17] deals with Glioblastoma cell line. Kind of series: Antiproliferation activity against TMZ resistant human glioblastoma cell P1S assessed as growth inhibition at 3 uM by MTT assay. In kind it is functional.

Chain of Histone deacetylase 1 (Q13547 whole entry): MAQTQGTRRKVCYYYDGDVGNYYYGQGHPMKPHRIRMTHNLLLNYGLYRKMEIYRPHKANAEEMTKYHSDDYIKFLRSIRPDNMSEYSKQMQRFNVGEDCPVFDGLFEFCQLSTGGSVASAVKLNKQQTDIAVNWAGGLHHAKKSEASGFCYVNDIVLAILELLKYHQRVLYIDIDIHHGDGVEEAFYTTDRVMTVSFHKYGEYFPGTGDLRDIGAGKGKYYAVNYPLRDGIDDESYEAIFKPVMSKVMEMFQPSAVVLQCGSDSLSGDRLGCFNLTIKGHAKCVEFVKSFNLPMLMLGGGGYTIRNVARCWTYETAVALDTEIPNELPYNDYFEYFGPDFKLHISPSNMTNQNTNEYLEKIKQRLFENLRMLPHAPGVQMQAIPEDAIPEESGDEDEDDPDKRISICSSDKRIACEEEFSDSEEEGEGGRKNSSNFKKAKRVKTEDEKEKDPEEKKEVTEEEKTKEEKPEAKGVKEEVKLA
Chain of Histone deacetylase 3 (O15379 whole entry): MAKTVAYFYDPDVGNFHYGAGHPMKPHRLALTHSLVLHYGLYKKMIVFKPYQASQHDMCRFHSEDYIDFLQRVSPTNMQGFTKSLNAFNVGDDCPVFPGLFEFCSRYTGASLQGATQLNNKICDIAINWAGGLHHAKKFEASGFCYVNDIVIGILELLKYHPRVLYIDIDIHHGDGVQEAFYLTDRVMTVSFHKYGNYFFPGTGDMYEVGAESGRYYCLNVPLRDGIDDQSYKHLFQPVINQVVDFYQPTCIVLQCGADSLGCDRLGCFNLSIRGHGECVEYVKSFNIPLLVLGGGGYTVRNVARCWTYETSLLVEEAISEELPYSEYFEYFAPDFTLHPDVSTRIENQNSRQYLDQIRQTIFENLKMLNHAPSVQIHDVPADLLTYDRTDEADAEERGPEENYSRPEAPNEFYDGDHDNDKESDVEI

On to `CC12CC3CC(C)(C1)CC(NC(=O)CCCCCCCCC(=O)NO)(C3)C2`, for which the IC50 worked out at 0.27 µM in series [1]; 9.46 µM in [2]; 5.24 µM in series [3]; 0.707 µM in [4]; 3.45 µM in series [5].

In the case of `CC12CC3CC(C)(C1)CC(NCc1cccc(NC(=O)CCCCCCC(=O)NO)c1)(C3)C2`, the inhibition at 10 µM in series [6] came to 90%. Besides, the IC50 was 0.0608 µM in series [1]; 1.4 µM in [2]; 0.679 µM in [3]; 0.703 µM in [4]; 0.652 µM in series [5].

Turning to `CC12CC3CC(C)(C1)CC(NC(=O)CCCCCCC(=O)NO)(C3)C2`, the IC50 was 0.36 µM in series [1]; 18.5 µM in series [2]; 4.43 µM in series [3]; 0.831 µM in series [4]; 12.6 µM in series [5].

On to `CC12CC3CC(C)(C1)CC(NS(=O)(=O)c1ccc(/C=C/C(=O)NO)cc1)(C3)C2`, for which the inhibition at 10 µM in series [6] is 90%. For the same molecule, the IC50 in [1] came to 0.103 µM; in series [2], 1.99 µM; in series [3], 0.95 µM; in series [4], 7.38 µM; in [5], 1.03 µM. Moreover, the result in series [7], in series [10] and in [11] was Active. Further, the Activity result in series [8] and in series [9] was “Dose-Dependent Effect” throughout.

As to `CC12CC3CC(C)(C1)CC(NS(=O)(=O)c1cccc(/C=C/C(=O)NO)c1)(C3)C2`, in series [6], the inhibition at 10 µM was 90%. The IC50 in series [1] is 0.0937 µM; in series [2] it was 2.21 µM; in series [3] it was 1.74 µM; in [4], 0.562 µM; in series [5] it was 2.89 µM.

Regarding `O=C(CCCCCCC(=O)Nc1ccccc1)NO` [VORINOSTAT], the permeability in [12] was 1 10^-5 cm/s.

Regarding `CC12CC3CC(C)(C1)CC(NC(=O)CCCCCCCC(=O)NO)(C3)C2`, the IC50 in [1] worked out at 0.227 µM; in [2], 33.6 µM; in series [3], 2.8 µM; in series [4], 1.07 µM; in series [5] it was 4.13 µM.

With `CC12CC3CC(C)(C1)CC(N)(C3)C2.Cl` [MEMANTINE HYDROCHLORIDE], the Activity in series [13] is recorded as 10%; in [14], 50%; in series [8], 28%; in [9], 57%. Moreover, in series [2], the concentration for half-maximal inhibition (IC50) worked out at 23.6 µM. Besides, the outcome in series [7], in series [15] and in [10] was inactive.

Turning to `CC12CC3CC(C)(C1)CC(NC(=O)CCCCCC(=O)NO)(C3)C2`, the IC50 in series [1] turned out to be 0.206 µM; in series [2], 16.1 µM; in [3] it was 16.1 µM; in series [4] it was 4.14 µM.

Take `CC12CC3CC(C)(C1)CC(NCc1ccc(C(=O)NO)cc1)(C3)C2`: the IC50 worked out at 3.2 µM in series [1], 45.2 µM in series [2] and 8.63 µM in [4].

As to `CC12CC3CC(C)(C1)CC(NCc1ccc(NCc4ccc(C(=O)NO)cc4)cc1)(C3)C2`, the inhibition at 10 µM in [6] amounted to 90%. For the same molecule, the IC50 in series [1] turned out to be 0.0768 µM; in series [2], 2.4 µM; in [3], 11 µM; in series [4] it was 15.3 µM.

Regarding `CC12CC3CC(C)(C1)CC(NCc1ccc(/C=C/C(=O)NO)cc1)(C3)C2`, the inhibition at 10 µM in series [6] came out at 90%. The concentration for half-maximal inhibition (IC50) stood at 0.077 µM in series [1], 1.87 µM in series [2], 1.03 µM in series [4] and 2.81 µM in series [5]. Further, the result in series [7], in series [10] and in [11] was Active. For the same molecule, the outcome in [16] and in series [17] was inactive. In addition, the Activity entry in series [8] and in series [9] was “Dose-Dependent Effect” in each case.
